Measured values reported in patent publication EP2930248B1, “METHOD FOR PREDICTING SENSITIVITY OF OSTEOSARCOMA PATIENT TO ANTICANCER AGENT” (National Cancer Center, priority 2014, dated 2015).
pIC50: −log10 of the molar value.

What was measured:
MG63 = assay: Sensitivity test: cell viability (Cell Counting Kit-8) after anticancer agent, RNA-transfected cells; type: cell-based, Human; conditions: MTX 72 hours, DOX and CDDP 48 hours
Experimental: (§1) Human osteosarcoma cell lines used were MNNG/HOS, MG63 and 143B. The cells were seeded in a 96-well plate at 3 x 10^3 cells/well. After 24 hours, the medium was replaced with fresh medium and miRNA-100 (SEQ ID NO: 1), miRNA-125b (SEQ ID NO: 2) or negative control (nonsense RNA) (microRNA control, Non-target RNA (S10CM0600; COSMO BIO Co., Ltd)) was introduced to the cells using DharmaFECT transfection reagents (Thermo Scientific). At 24 hours after RNA introduction, the medium was replaced with fresh medium. Specific procedures followed the protocol attached to the gene transfer reagents used.
(§2) Methotrexate (MTX), doxorubicin (DOX) and cisplatin (CDDP) were applied to the cells lines MNNG/HOS, MG63 or 143B to which various RNAs were introduced under following conditions followed by incubation over a certain period. The viability of the cells thereafter was measured with the Cell Counting Kit-8 (Dojindo Laboratories). Specific procedures followed the protocol attached to the kit used.
(§3) Methotrexate (MTX): applied at a final concentration of 0 to 32 µM and incubated for 72 hours.
(§4) Doxorubicin (DOX): applied at a concentration of 0 to 1.3 µM and incubated for 48 hours.
(§5) Cisplatin (CDDP): applied at a final concentration of 0 to 32 µM and incubated for 48 hours.
(§6) From the results of measurement of the viability of the cells, the 50% inhibitory concentration of cell proliferation (IC50) for each anticancer agent was determined.

MNNG/HOS = assay: as above; type: cell-based, Human; conditions: MTX 72 hours, DOX and CDDP 48 hours
Experimental: as §1, §2, §3, §4, §5, §6

143B = assay: as above; type: cell-based, Human; conditions: 143B cells, MTX 72 hours, DOX and CDDP 48 hours
Experimental: as §1, §2, §3, §4, §5, §6

BAK1 = BAK1 protein expression by western blotting in RNA-transfected MNNG/HOS cells; type: cell-based, human; conditions: with application of DOX 64 µM, 48 hours, Fig. 8
Experimental: as §1, with “A human” for “Human”, “line” for “lines”, “was MNNG/HOS.” for “were MNNG/HOS, MG63 and 143B.”, “and” for “and miRNA-100 (SEQ ID NO: 1),”
Doxorubicin (DOX) at a final concentration of 0 µM or 64 µM was applied to MNNG/HOS cells to which various RNAs were introduced as above (1) and then the cells were incubated for 48 hours. To the collected cells was added a urea-containing lysis buffer and the mixture was incubated on ice for 30 minutes to lyse the cells. The lysed cells were centrifuged at 15,000 rpm for 30 minutes at 4°C and the supernatant was collected. The protein concentration in the supernatant was quantified by the Bradford assay (Bio-Rad).
Proteins in the supernatant were separated by electrophoresis using an SDS/polyacrylamide gel and transferred onto a nitrocellulose membrane (Bio-Rad). […] After the membrane was washed with TBS-T, the antigen-antibody complex was detected with the ECL-Prime kit (GE).

[1] = control (negative control nonsense RNA) introduced
[2] = Homo sapiens, MG-63, MG63 cells, control (negative control nonsense RNA) introduced
[3] = Homo sapiens, MG-63, MG63 cells, miR-100 introduced
[4] = Homo sapiens, MG-63, MG63 cells, miR-125b introduced
[5] = Homo sapiens, HOS, control (negative control nonsense RNA) introduced
[6] = Homo sapiens, HOS, miR-100 introduced
[7] = Homo sapiens, HOS, miR-125b introduced
[8] = Homo sapiens, 143B, control (negative control nonsense RNA) introduced
[9] = Homo sapiens, 143B, miR-100 introduced
[10] = Homo sapiens, 143B, miR-125b introduced

| pIC50 (MG63; MG63 cells, control (negative control nonsense RNA) introduced) | pIC50 (MG63; MG63 cells, miR-100 introduced) | pIC50 (MG63; MG63 cells, miR-125b introduced) | pIC50 (MNNG/HOS; [1]) | pIC50 (MNNG/HOS; miR-100 introduced) | pIC50 (MNNG/HOS; miR-125b introduced) | pIC50 (143B; [1]) | pIC50 (143B; miR-100 introduced) | pIC50 (143B; miR-125b introduced) | pIC50 (MG63; [2]) | pIC50 (MG63; [3]) | pIC50 (MG63; [4]) | pIC50 (MNNG/HOS; [5]) | pIC50 (MNNG/HOS; [6]) | pIC50 (MNNG/HOS; [7]) | pIC50 (143B; [8]) | pIC50 (143B; [9]) | pIC50 (143B; [10]) | Compound | expression level of BAK1 in NC versus miRNA-125b-introduced cell line (BAK1) |
| --- | --- | --- | --- | --- | --- | --- | --- | --- | --- | --- | --- | --- | --- | --- | --- | --- | --- | --- | --- |
| 5.54 | 5.59 | 5.79 | 5.24 | 5.16 | 5.14 | 4.91 | 4.84 | 4.85 | – | – | – | – | – | – | – | – | – | [NH2][Pt]([NH2])([Cl])[Cl] [CDDP, Cisplatin] | – |
| – | – | – | – | – | – | – | – | – | 7.19 | 7.14 | 7.13 | 6.74 | 6.60 | 6.43 | 7.19 | 7.11 | 7.14 | COc1cccc2c1C(=O)c1c(O)c3c(c(O)c1C2=O)C[C@@](O)(C(=O)CO)C[C@@H]3O[C@H]1C[C@H](N)[C@H](O)[C@H](C)O1 [DOX, Doxorubicin] | almost the same |
| – | – | – | – | – | – | – | – | – | 5.51 | 5.14 | 5.11 | 5.98 | 5.60 | 5.39 | 5.83 | 5.49 | 5.40 | CN(Cc1cnc2nc(N)nc(N)c2n1)c1ccc(C(=O)N[C@@H](CCC(=O)O)C(=O)O)cc1 [MTX, Methotrexate] | – |
